Columns and labels:
Format in all cases: in vivo, mouse
[1] = test system: learning and/or memory functions of C57Bl/6j mice (LPS-induced learning and/or memory disorder model); test: Novel object recognition test in LPS-induced learning and/or memory disorder model (Experimental Example 1); conditions: 3 g/kg body weight oral once a day for 13 days; LPS 250 μg/kg i.p. day 4 to 10; Tukey; Example 1 p<0.05
Experimental: To the control LPS group was orally administered 10 mL of distilled water per kg of mouse body weight once a day for 13 consecutive days.
The agent of Comparative Example 2 was suspended in distilled water at a concentration of 0.3 g/mL, and 10 mL (3 g/kg body weight) was orally administered per kg of mouse body weight once a day for 13 consecutive days to the group to be administered with the agent of Comparative Example 2 (LPS+Gly3). […]
During the training trial, the ratio (%) of the time of contact with object A1 or A2 with a shorter contact time to the total time of contact with the two objects (A1 and A2) placed in the experimental arena was calculated.
During the retention trial, the ratio (%) of the time of contact with object B to the total time of contact with the two objects (A1 and B, or A2 and B) placed in the experimental arena was determined. […]

[2] = test system: D-site of albumin promoter (albumin D-box) binding protein (Dbp) gene; test: Hippocampal gene expression level by RNA-seq (TPM), Dbp; conditions: oral once a day for 13 days (Example 1 3 g/kg, Comp. Ex. 4 2 g/kg, Comp. Ex. 5 1 g/kg); Dunnett; p<0.05 for Example 1
Experimental: (§1) At that time, as comparison samples, 2 g of glycine was used as the agent of Comparative Example 4, and 1 g of L-serine was used as the agent of Comparative Example 5, and the action on gene expression in the mouse hippocampus was similarly examined.
(§2) The agent of Comparative Example 4 was suspended in 0.5 wt % methylcellulose aqueous solution at a concentration of 0.2 g/mL, and 10 mL (2 g/kg body weight) was orally administered per kg of mouse body weight once a day for 13 consecutive days to the group to be administered with the agent of Comparative Example 4 (LPS+Gly2).
as §2, with “5” for “4”, “0.1” for “0.2”, “(1” for “(2”, “5 (LPS+L-Ser1).” for “4 (LPS+Gly2).”
(§3) Hippocampal tissue was collected from each group of mice that had been administered with each suspension or vehicle shown in Table 5 for 13 consecutive days, total RNA was extracted from each individual separately, and RNA sequencing (RNA-seq) was performed. […] Samples from individuals suspected of being contaminated at the time of tissue collection were excluded from analysis.

[3] = test system: Galanin and GMAP prepropeptide (Gal) gene; test: Hippocampal gene expression level by RNA-seq (TPM), Gal; conditions: oral once a day for 13 days (Example 1 3 g/kg, Comp. Ex. 4 2 g/kg, Comp. Ex. 5 1 g/kg); Dunnett; p<0.05 for Example 1
Experimental: as §1, §2
as §2, with “5” for “4”, “0.1” for “0.2”, “(1” for “(2”, “5 (LPS+L-Ser1).” for “4 (LPS+Gly2).”
as §3

[4] = test system: Sonic hedgehog (Shh) gene; test: Hippocampal gene expression level by RNA-seq (TPM), Shh; conditions: oral once a day for 13 days (Example 1 3 g/kg, Comp. Ex. 4 2 g/kg, Comp. Ex. 5 1 g/kg); Dunnett; p<0.05 for Example 1
Experimental: as §1, §2
as §2, with “5” for “4”, “0.1” for “0.2”, “(1” for “(2”, “5 (LPS+L-Ser1).” for “4 (LPS+Gly2).”
as §3

[5] = test system: Thyroid stimulating hormone receptor (TShr) gene; test: Hippocampal gene expression level by RNA-seq (TPM), Tshr; conditions: oral once a day for 13 days (Example 1 3 g/kg, Comp. Ex. 4 2 g/kg, Comp. Ex. 5 1 g/kg); Dunnett; p<0.05 for Example 1
Experimental: as §1, §2
as §2, with “5” for “4”, “0.1” for “0.2”, “(1” for “(2”, “5 (LPS+L-Ser1).” for “4 (LPS+Gly2).”
as §3

[6] = test system: Family with sequence similarity 107 member a (Fam107a) gene; test: Hippocampal gene expression level by RNA-seq (TPM), Fam107a; conditions: oral once a day for 13 days (Example 1 3 g/kg, Comp. Ex. 4 2 g/kg, Comp. Ex. 5 1 g/kg); Dunnett; p<0.05 for Example 1
Experimental: as §1, §2
as §2, with “5” for “4”, “0.1” for “0.2”, “(1” for “(2”, “5 (LPS+L-Ser1).” for “4 (LPS+Gly2).”
as §3

SMILES	RI value (%) during the retention trial, compared with the group orally administered with distilled water (LPS) [1]	expression of the Dbp gene in hippocampus vs solvent alone (LPS) [2]	expression of the Gal gene in hippocampus vs solvent alone (LPS) [3]	expression of the Shh gene in hippocampus vs solvent alone (LPS) [4]	expression of the Tshr gene in hippocampus vs solvent alone (LPS) [5]	expression of the Fam107a gene in hippocampus vs solvent alone (LPS) [6]
NCC(=O)O [Comparative Example 2, glycine]	significant difference was not observed					
NCC(=O)O [Comparative Example 4, glycine]		significant changes in the expression levels of genes were not observed	significant changes in the expression levels of genes were not observed	significant changes in the expression levels of genes were not observed	significant changes in the expression levels of genes were not observed	significant changes in the expression levels of genes were not observed
N[C@@H](CO)C(=O)O [Comparative Example 5, L-serine]		significant changes in the expression levels of genes were not observed	significant changes in the expression levels of genes were not observed	significant changes in the expression levels of genes were not observed	significant changes in the expression levels of genes were not observed	significant changes in the expression levels of genes were not observed

Source: patent US20240091185A1, “COMPOSITION FOR IMPROVING COGNITIVE FUNCTION, AGENT FOR IMPROVING COGNITIVE FUNCTION, AND FOOD FOR IMPROVING COGNITIVE FUNCTION” (AJINOMOTO CO., INC., priority 2021, published 2024)
